Laboratory results as given in patent US20060194230A1, “Genetic markers associated with benign prostatic hyperplasia” (BAYLOR COLLEGE OF MEDICINE, priority 2005, published 2006).

Legend:
prostate cell lines [1] = assay: Induction of potential BPH markers in prostate cell lines cultured with androgen or inflammatory agents; type: cell-based, human; details: non-cancer prostate cell lines cultured in the presence of the agent
Procedure: To confirm the expression of CXCL9, 10 and 11, contactin 1 and CXCR3 in prostate tissue, the present inventors examined several non-cancer prostate cell lines for these markers. The prostate epithelial cells RWPE-1 and PWR-1E are androgen responsive nomal or hyperplastic cells transformed with HPV1828, 29. The epithelial cell line BPH 130 is originated from BPH tissue transformed with SV40 T antigen. […] Cells were cultured in their prescribed media and were fixed, permeabilized and stained by standard methods and analyzed by single color flow cytometry. […] To determine if prostate cell expression of CXCL chemokines was responsive to interferon stimulation, stromal and epithelial cell lines were cultured in the presence of IFNγ. Chemokine induction was measured by Q-RT-PCR and is shown as fold induction over basal expression in untreated cells (FIG. 12).

[2] = tested on: prostate transition zone tissue; assay: Microarray (Affymetrix U133 Plus 2.0) gene expression in prostates of patients treated with finasteride, tamsulosin or both before radical prostatectomy (Table 7); type: in vivo, human; details: patients treated 2, 4 or 6 weeks before prostatectomy; minus sign = down regulation
Procedure: In non-limiting exemplary embodiments of the invention, a randomized, open-label, single-center study was performed to determine the spatio-temporal changes in gene expression within the prostate of patients who receive 0.4 mg of Flomax® (tamsulosin) capsules daily, 5 mg of Proscar® (finasteride) tablets daily, or both for either 6, 4, or 2 weeks prior to radical prostatectomy. Tissue samples from radical prostatectomy specimens were obtained under an ongoing IRB-approved protocol (H-1158). Zone-specific tissue samples from patients undergoing radical prostatectomy for clinically localized prostate cancer were harvested and frozen in liquid nitrogen for later analysis. In addition to prostate cancer tissue samples, samples from the transition zone from these patients have also been harvested. Participants were randomly allocated to one of three drug treatment arms, after being categorized into one of three groups according to the duration from enrollment date to scheduled surgery date. BPH related symptoms were assessed using self-administered BPH symptom questionnaires at day of enrollment and every 2 weeks (no clinic visit required) until surgery. Medication compliance is assessed at the time of radical prostatectomy. FIG. 1 illustrates an exemplary randomized block design with variable block size for randomly assigning participants to nine treatment groups. After standard quality control analysis of extracted mRNA, 20 samples from patient prostates treated with either finasteride, tamsulosin, or both drugs together for 2, 4, or 6 weeks, were subjected to microarray chip hybridization (in conjunction with the Baylor College of Medicine Microarray Core Facility). In Table 6, patients were treated with the 5-alpha reductase inhibitor, Finasteride (FIN), or the alpha-1 adrenergic receptor antagonist, Tamsulosin (TAM), or both drugs together (FIN+TAM) for the times indicated prior to prostatectomy. Samples were used in Affymetrix U133 Plus 2.0 microarray analysis as shown. Through this analysis, a number of genes (listed in Table 7) were identified whose expression was modulated by drug treatment. These genes are associated with inflammatory pathways (an exemplary embodiment of which is provided in FIG. 2), Wnt signaling pathway (an exemplary embodiment of which is provided in FIG. 3); cell signaling and cell cycle regulatory pathway (an exemplary embodiment of which is provided in FIG. 4), or extracellular matrix remodeling. Although several of these genes have previously been implicated in prostate cancer progression, they have not been described in connection with progression of BPH or in connection with the exemplary drug treatment regimes described above. In Table 7, there are polynucleotides showing 1.3-77 fold changes in expression level after drug treatment. Down regulation after drug treatment is signified by “-” in front of the fold change. In particular embodiments, the information may be obtained at particular timepoints following the onset of therapy, such as about 1 day, 2 days, 3 days, 4 days, 5 days, 6 days, 1 week, 2 weeks, 3 weeks, 4 weeks, 5 weeks, 6 weeks, 7 weeks, 8 weeks, or combinations thereof, or more or less, for example. In the specific embodiments wherein more than one timepoint is evaluated, an average of the timepoints may be obtained.

TZ BPH prostate tissue = assay: Microarray gene expression in TZ BPH nodular tissue of drug treated patients, dChip/ANOVA analysis (Table 11); type: in vivo, human; details: for expression of the five markers MIG (CXCL9), IP 10 (CXCL10), I-TAC (CXCL11), Contactin-1 (CNTN1), Dickkopf-3 (DKK3): TZ BPH tissue from treated patients versus untreated BPH tissue
From the text: In specific embodiments of the present invention, the inventors employed the exemplary Affymetrix U133 Plus 2.0 whole genome microarrays to profile gene expression in the transition zone (TZ) of small (≦30 g) and big (≧70 g) prostates. In addition, they also profiled gene expression changes in TZ benign prostatic hyperplasia (BPH) tissue from patients treated with α1-receptor blockade (tamsulosin), 5α-reductase type II inhibition (finasteride), or both medications combined. Integrating the results from these profiles led to the discovery of 5 exemplary polynucleotides that in specific embodiments are diagnostic and/or prognostic biomarkers for BPH. These exemplary markers include the three interferon inducible pro-inflammatory chemokines, MIG (CXCL9), IP 10 (CXCL10), and I-TAC (CXCL11), the adhesion molecule Contactin-1 (CNTN1), the Wnt pathway signaling inhibitor Dickkopf-3 (DKK3), and any combination thereof. […] In further specific embodiments, the mechanisms by which these inflammatory BPH markers are induced and their influence on prostate hyperplasia is determined.
To address the second specific embodiment, patients awaiting radical prostatectomy were given a standard therapeutic course of tamsulosin, finasteride or both tamsulosin and finasteride for 2, 4, or 6 weeks prior to surgery. TZ BPH nodular tissue was isolated post surgery. Total RNA was purified from 24 samples from individual patients and analyzed using Affymetrix U133 Plus 2.0 microarrays. Of the 24 arrays run on drug treated patient prostates, 7 were ultimately excluded from the final analysis due poor signal quality within the arrays.
Expression levels from drug treated prostate tissue were analyzed with dChip. Comparison of changes in gene expression between drugs and between time of therapy was performed by ANOVA. This initial analysis yielded 3568 genes with significant a difference (p≦0.01) in at least 1 comparison. […] Genes regulated by drug treatment were grouped by pathway or common function and those showing multiple changes in expression are shown in Table 11.

prostate RNA samples = assay: Real-time quantitative RT-PCR validation in prostate samples from drug treated patients; type: in vivo, human; details: BPH nodules, drug treatment versus no drug
Procedure: To further refine the list of genes profiled in the microarray studies, the differential expression of 30 of these genes were tested by real-time quantitative RT-PCR (Q-RT-PCR). Since Q-RT-PCR is based on the detection of small amplimers (80-150 base pairs) it. is less affected by RNA degradation than microarrays. This allowed the inventors to used a larger sample set of prostate RNA than were included in the microarray analyses. The inventors tested […] small and 10 big prostate samples (including the 15 samples from the array analysis) and 24 samples from drug treated patients (10 treated with finasteride, 7 treated with tamsulosin, and 7 treated with both drugs). Individual comparisons were made between small and big prostates and between no drug (all 18 small and big samples) and drug treatments for each therapy drug condition without consideration of the treatment duration. Several groups of genes validated with significant differences by Q-RT-PCR between small and big prostate and/or those regulated by at least one drug treatment. The three pro-inflammatory chemokines CXCL9 (MIG), CXCL10 (IP-10), and CXCL11 (I-TAC) are best known for production by monocytes as chemotactic agents for T cells (Kim and Broxmeyer, 1999). […]

[3] = tested on: hyperplastic prostatic tissue; details: cited from earlier work
prostate cell lines [4] = type: cell-based, human; details: 4 prostate cell lines, with or without 100 U/ml IFNγ, Q-RT-PCR
Procedure: 4 prostate cell lines were cultured in media with or without 100 U/ml IFNγ. Chemokine expression was determined by Q-RT-PCR and induction calculated using the 2^−ΔΔCt method compared to untreated cells.
To confirm the expression of CXCL9, 10 and 11, contactin 1 and CXCR3 in prostate tissue, the present inventors examined several non-cancer prostate cell lines for these markers. The prostate epithelial cells RWPE-1 and PWR-1E are androgen responsive nomal or hyperplastic cells transformed with HPV1828, 29. The epithelial cell line BPH 130 is originated from BPH tissue transformed with SV40 T antigen. The cell lines HTS-2T and HPS-19B are primary prostate stromal cell lines from TZ and PZ, respectively (Singh et al., 2004). Cells were cultured in their prescribed media and were fixed, permeabilized and stained by standard methods and analyzed by single color flow cytometry. The chemokines CXCL9, 10 and 11 were present in all cells tested as was contactin 1 (FIG. 11). DKK3 was not tested for lack of a suitable antibody for flow cytometric analysis. CXCR3 was highly expressed in all the cells. […] Chemokine induction was measured by Q-RT-PCR and is shown as fold induction over basal expression in untreated cells (FIG. 12). […]

[5] = treatment with drug between 2 and 6 weeks, TZ BPH tissue

Molecule	CKTSF1B1 (Gremlin) expression fold change after drug treatment [2] [fold]	CXCL9 expression fold change after drug treatment [2] [fold]	CXCL10 expression fold change after drug treatment [2] [fold]	CXCL11 expression fold change after drug treatment [2] [fold]	CyclophilinC expression fold change after drug treatment [2] [fold]	Frizzled 10 expression fold change after drug treatment [2] [fold]	HLA-DP expression fold change after drug treatment [2] [fold]	HS3ST3B1 expression fold change after drug treatment [2] [fold]	ORM1 expression fold change after drug treatment [2] [fold]	VEGF expression fold change after drug treatment [2] [fold]	WIF1 expression fold change after drug treatment [2] [fold]	expression of the five markers MIG (CXCL9), IP 10 (CXCL10), I-TAC (CXCL11), Contactin-1 (CNTN1), Dickkopf-3 (DKK3) (TZ BPH prostate tissue)	CKTSF1B1 (Gremlin) differential gene expression (TZ BPH prostate tissue; [5]) [fold]	CXCL9 differential gene expression (TZ BPH prostate tissue; [5]) [fold]	HLA-DP differential gene expression (TZ BPH prostate tissue; [5]) [fold]	HS3ST3B1 differential gene expression (TZ BPH prostate tissue; [5]) [fold]	ORM1 differential gene expression (TZ BPH prostate tissue; [5]) [fold]	VEGF differential gene expression (TZ BPH prostate tissue; [5]) [fold]	WIF1 differential gene expression (TZ BPH prostate tissue; [5]) [fold]	expression of chemokines CXCL9 (MIG), CXCL10 (IP-10), CXCL11 (I-TAC) (prostate RNA samples)	also measured
C[C@]1(O)CC[C@H]2[C@@H]3CCC4=CC(=O)CCC4=C3C=C[C@@]21C [R1881]																					changes in BPH marker expression (CXCL9, 10, 11, contactin 1, CXCR3) (prostate cell lines [1]): No changes
CCOc1ccccc1OCCN[C@H](C)Cc1ccc(OC)c(S(N)(=O)=O)c1 [Tamsulosin, tamsulosin]	−4.76	−3.37	−4.65	−5.81	−1.87	−1.82	−2.33	−2.20	76.96	−2.01	−4.60	decreased	−4.76	−2.86	−2.33	−2.20	76.96	−2.01	−4.60	decreased	Cbl-b expression fold change after drug treatment [2]: 1.30 fold; Dicer 1 expression fold change after drug treatment [2]: 1.30 fold; DKK3 differential gene expression (TZ BPH prostate tissue; [5]): −2.85 fold
COc1cc2nc(N3CCN(C(=O)C4COc5ccccc5O4)CC3)nc(N)c2cc1OC (stereo not shown) [doxazosin]																					apoptosis in the stromal compartment of hyperplastic prostatic tissue ([3]; alpha blockade): increases; overall re-occurrence rate of BPH ([3]; alpha blockade): does not decrease
CC(C)(C)NC(=O)[C@H]1CC[C@H]2[C@@H]3CC[C@H]4NC(=O)C=C[C@]4(C)[C@H]3CC[C@]12C [Finasteride, finasteride]	−4.10	−2.85	−2.01	−2.62	−2.52	−2.45	−2.29	−2.29	2.38	−2.15	−7.53	decreased	−4.10	−3.61	−2.29	−2.29	2.38	−2.15	−7.53	decreased	DKK3 expression fold change after drug treatment [2]: −2.28 fold; KLK4 expression fold change after drug treatment [2]: −3.47 fold; SPROUTY2 expression fold change after drug treatment [2]: −1.94 fold; ZNF36 expression fold change after drug treatment [2]: −1.55 fold; CTNNB1 differential gene expression (TZ BPH prostate tissue; [5]): 2.26 fold; Frizzled 10 differential gene expression (TZ BPH prostate tissue; [5]): −2.45 fold; KLK4 differential gene expression (TZ BPH prostate tissue; [5]): −3.47 fold; reduction of prostate growth ([3]; over the first year, without recurrance of significant prostatic growth): ≤ 20%
IFNγ: interferon-γ used to stimulate prostate cell lines, 100 U/ml (protein, UniProt P01579 24-161, looked up) Interferon gamma: QDPYVKEAENLKKYFNAGHSDVADNGTLFLGILKNWKEESDRKIMQSQIVSFYFKLFKNFKDDQSIQKSVETIKEDMNVKFFNSNKKKRDDFEKLTNYSVTDLNVQRKAIHELIQVMAELSPAAKTGKRKRSQMLFRG																					CXCL chemokine expression in prostate cells (prostate cell lines [4]): up-regulated
